Assay results published in patent publication US9023384B2, “Liposome and method for injecting substance to cell using this liposome” (Tokyo Medical and Dental University, priority 2004, dated 2015).

Tests used:
[1] = test system: COX-2 mRNA in U2OS cells carrying expressed Cx43; assay: COX-2 expression by RT-PCR after IL-1 stimulation; type: cell-based
Description: Specifically, the U2OS cells used in Example 2 was initially cultured until 80 to 90% density in a 10-cm culture dish, on which a liposome containing the NBD peptide was then allowed to act for 12 hours. In this example, the liposome used was constructed in the same way as in Example 1 except that a solution used contained 50 μL of the NBD peptide.
In FIG. 8, “Cx-U2OS” denotes a result obtained using a liposome having connexon, and “U2OS” denotes a result obtained using a liposome having no connexon. […] Moreover, the suppression of COX-2 expression was not confirmed in the administration of NBD alone, the administration of NBD using the liposome having no Cx43 expression, administration after pretreatment with GA, and the administration of mutant NBD. Furthermore, the NBD effect was not confirmed on U2OS having no Cx43 expression.

[2] = test system: NFκB activity in U2OS cells carrying expressed Cx43; assay: NF-kB reporter gene assay (intracellular luciferase activity) after IL-1β stimulation; type: cell-based
Description: As schematically shown in FIG. 6, an IKK complex is activated by IL-1β stimulation or the like and thereby phosphorylates IκB. The phosphorylated IκB is further polyubiquitinated and degraded by a pathway in a proteasome system. As a result, the suppressive effect of IκB on NFκB (p50+p65) disappears. The nuclear-imported NFκB increases the transcriptional activity of a gene of interest. A NEMO Binding Domain ((SEQ ID NO:3); hereinafter, NBD) is known to be a sequence present in the C-terminus of IKKβ, one component in the IKK complex, and be necessary for binding with IKKγ (NEMO). The solubilized NBD oligopeptide originally suppresses normal IKK functions through its competitive inhibition of the binding of IKKβ with NEMO and thereby suppresses the nuclear import of NFκB and the transcription of a gene of interest. […] Thus, in this example, a liposome having connexon consisting of Cx43 was used to attempt the administration of the NBD peptide into cells via a gap junction.
Specifically, the U2OS cells used in Example 2 was initially cultured until 80 to 90% density in a 10-cm culture dish, on which a liposome containing the NBD peptide was then allowed to act for 12 hours. In this example, the liposome used was constructed in the same way as in Example 1 except that a solution used contained 50 μL of the NBD peptide. […]

For `CC1(C)[C@@H](O)CC[C@]2(C)[C@H]3C(=O)C=C4[C@@H]5C[C@@](C)(C(=O)O)CC[C@]5(C)CC[C@@]4(C)[C@]3(C)CC[C@@H]12` [18β-glycyrrhetinic acid], the “suppression of COX-2 expression by NBD administration after pretreatment with GA” value ([1]; pretreatment with GA) was “not confirmed” and the “effect of pretreatment with gap junction inhibitor on the NBD effect on NFκB activity” value ([2]; pretreatment before NBD administration using Cx43-expressing liposome) was “suppressed the NBD effect”.
For “NBD peptide: NEMO Binding Domain oligopeptide (SEQ ID NO:3), administered without liposome (TALDWSWLQTE; listed as Homo sapiens)”, the “suppression of IL-1 stimulation-induced rises in COX-2 expression” value ([1]; cells carrying expressed Cx43) was “not confirmed” and the “suppression of IL-1β stimulation-induced rises in NFκB activity” value ([2]; liposome for 12 hours, then IL-1β for 24 hours, cells carrying expressed Cx43) was “not confirmed”.
